The source of these data is patent US20190234940A1, “METABOLIC RESTRICTION IN CELL-BASED ASSAYS” (priority 2016, published 2019).

Structures are written as SMILES. Counter-ions that a name gives are not always drawn. Like-named read-outs stand apart in the source and are kept apart here. Where only a bound is given, the exact number is not on record here.

For series [1], the target named is T1, CYP3A4 (Homo sapiens, UniProt P08684).
T1 construct: CYP1A2, CYP2C9, and CYP3A4 activity were determined in HBV-infected HepaRG cells; endogenous in cells; host or cells: differentiated HepaRG cells infected with HBV
As to the kind of experiment: P450-Glo CYP3A4 activity in HBV-infected HepaRG cells. In kind it is cell-based. The settings on record: day 11 p.i.

In series [2] the target is T2, CYP2C9 (Homo sapiens, UniProt P11712). As to the kind of experiment: P450-Glo CYP2C9 activity in HBV-infected HepaRG cells.
In series [3] the target is T3, CYP1A2 (Homo sapiens, UniProt P05177).
T3 construct: CYP1A2, CYP2C9, and CYP3A4 activity were determined in HBV-infected HepaRG cells; endogenous in cells; host or cells: differentiated HepaRG cells infected with HBV
T3 sequence (P05177 1-516): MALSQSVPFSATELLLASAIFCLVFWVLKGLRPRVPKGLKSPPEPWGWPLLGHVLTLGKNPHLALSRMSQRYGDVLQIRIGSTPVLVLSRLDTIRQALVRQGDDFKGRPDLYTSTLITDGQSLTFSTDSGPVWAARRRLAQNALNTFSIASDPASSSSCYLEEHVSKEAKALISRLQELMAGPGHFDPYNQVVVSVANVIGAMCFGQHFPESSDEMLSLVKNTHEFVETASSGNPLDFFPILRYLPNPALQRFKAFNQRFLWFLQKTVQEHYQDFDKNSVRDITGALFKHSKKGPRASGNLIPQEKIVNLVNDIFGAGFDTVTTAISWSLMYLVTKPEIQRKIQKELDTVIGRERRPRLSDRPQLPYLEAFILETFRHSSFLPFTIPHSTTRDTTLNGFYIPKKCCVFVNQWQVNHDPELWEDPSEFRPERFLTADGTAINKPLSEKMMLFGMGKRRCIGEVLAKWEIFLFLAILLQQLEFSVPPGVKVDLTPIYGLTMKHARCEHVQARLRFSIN
Put plainly: P450-Glo CYP1A2 activity in HBV-infected HepaRG cells. The class given is cell-based. The settings on record: day 11 p.i.

In series [4] the target is T2, CYP2C9.
Setting [5] is: ABT 10 or 20 mM 1 h twice, or 0.1 or 0.2 mM twice for 3 days (days 5 and 8 p.i.).
The mark [6] stands for this setting: SKF-525A 100 or 200 μM 1 h twice, or 2 or 20 μM twice for 3 days.

T2 sequence (P11712 whole entry): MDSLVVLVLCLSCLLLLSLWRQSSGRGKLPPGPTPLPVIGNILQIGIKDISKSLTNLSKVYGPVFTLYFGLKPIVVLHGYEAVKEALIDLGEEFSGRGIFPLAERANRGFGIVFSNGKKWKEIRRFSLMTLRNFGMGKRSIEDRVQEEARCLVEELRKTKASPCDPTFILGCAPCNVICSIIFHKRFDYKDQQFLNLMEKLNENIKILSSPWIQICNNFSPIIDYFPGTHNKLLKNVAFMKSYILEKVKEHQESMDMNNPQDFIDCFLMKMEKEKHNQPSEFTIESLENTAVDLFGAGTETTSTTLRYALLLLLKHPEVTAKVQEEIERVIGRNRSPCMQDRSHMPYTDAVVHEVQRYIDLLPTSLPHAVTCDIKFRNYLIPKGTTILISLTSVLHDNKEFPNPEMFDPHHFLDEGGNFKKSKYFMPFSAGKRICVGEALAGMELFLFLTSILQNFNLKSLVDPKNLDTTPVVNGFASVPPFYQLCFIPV
T1 sequence (P08684 whole entry): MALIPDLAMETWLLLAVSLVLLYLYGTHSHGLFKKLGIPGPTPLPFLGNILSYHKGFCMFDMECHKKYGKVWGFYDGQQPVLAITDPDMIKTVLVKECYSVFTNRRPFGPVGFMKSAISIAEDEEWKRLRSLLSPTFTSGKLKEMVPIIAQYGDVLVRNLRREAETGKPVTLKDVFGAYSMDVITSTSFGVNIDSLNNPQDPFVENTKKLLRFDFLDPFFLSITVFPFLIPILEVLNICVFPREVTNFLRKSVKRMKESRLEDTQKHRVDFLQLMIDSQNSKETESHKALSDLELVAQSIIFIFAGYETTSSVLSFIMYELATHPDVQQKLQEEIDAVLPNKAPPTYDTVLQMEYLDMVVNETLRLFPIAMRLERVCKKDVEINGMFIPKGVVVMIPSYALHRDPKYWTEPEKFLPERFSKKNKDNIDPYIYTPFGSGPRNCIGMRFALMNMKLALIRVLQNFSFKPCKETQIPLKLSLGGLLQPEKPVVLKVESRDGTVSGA

Take `Nn1nnc2ccccc21` [ABT, 1-aminobenzotriazole]: the “inhibition of CYP3A4” value in series [1] (setting [5]) is given as greater than 90%. Moreover, the “inhibition of CYP2C9” value in series [2] (ABT 10 or 20 mM 1 h twice, or 0.1 or 0.2 mM twice for 3 days (days 5 and 8 p.i.), day 11 p.i.) is given as 72%-75%. Moreover, the “inhibition of CYP1A2” value in series [3] (setting [5]) is given as greater than 90%.
Turning to `CCCC(C(=O)OCCN(CC)CC)(c1ccccc1)c1ccccc1` [SKF-525A, proadifen hydrochloride], in series [1] (setting [6]), the “CYP3A4 inhibition relative to other CYPs” value is “inhibited CYP3A4 better than CYP2C9”. The “CYP1A2 inhibition relative to other CYPs” value in series [3] (setting [6]) was “inhibited CYP1A2 less”.
Regarding `Cc1nc2c([nH]1)c(=O)n(C)c(=O)n2Cc1ccco1` [furafylline], the CYP2C9 inhibition result in series [2] (furafylline alone, titration) is on record as “also inhibit”.
With `CC(=O)N1CCN(c2ccc(OCC3COC(Cn4ccnc4)(c4ccc(Cl)cc4Cl)O3)cc2)CC1` (stereo not shown) [ketoconazole], in series [4], the CYP2C9 inhibition entry was “also inhibit”.
